Data on 18 compounds can be found in publication PMC11995724, “Antibiotic target discovery by integrated phenotypic and activity-based profiling of electrophilic fragments” (Cell chemical biology, 2025).

This data set is described as follows: in vitro. As to conditions: human, hek293t cells.
Turning to `N#CC(=Cc1ccsc1)C(=O)Nc1nccs1` [9-C17, 2-cyano-N-(1,3-thiazol-2-yl)-3-(thiophen-3-yl)prop-2-enamide], the viability at 48 h, 25 µM amounted to 121%. With `N#CC(=Cc1sc2ccccc2c1Cl)C(=O)NC1CC1` [9-C18, 3-(3-chloro-1-benzothiophen-2-yl)-2-cyano-N-cyclopropylprop-2-enamide], the viability at 48 h, 25 µM came out at 86.4%. Then `N#CC(=Cc1cccc(O)c1)C(=O)Nc1ccc(SC(F)F)cc1` [9-C19, 2-cyano-N-{4-[(difluoromethyl)sulfanyl]phenyl}-3-(3-hydroxyphenyl)prop-2-enamide], with 99.7%; and `COc1cccc(NC(=O)C(C#N)=Cc2c[nH]c(-c3ccccc3)n2)c1` [9-C20, 2-cyano-N-(3-methoxyphenyl)-3-(2-phenyl-1H-imidazol-4-yl)prop-2-enamide], with 108%; and `N#CC(=Cc1ccc(F)cc1)C(=O)Nc1cccc2ncccc12` [9-C21, 2-cyano-3-(4-fluorophenyl)-N-(quinolin-5-yl)prop-2-enamide], with 118%. With `Cc1ccc(C=C(C#N)C(=O)Nc2ccccc2Cl)s1` [9-C22, N-(2-chlorophenyl)-2-cyano-3-(5-methylthiophen-2-yl)prop-2-enamide] the figure was 107%; with `Cc1nn(C)c(C)c1C=C(C#N)C(=O)Nc1ccc2c(c1)OCCO2` [9-D03, 2-cyano-N-(2,3-dihydro-1,4-benzodioxin-6-yl)-3-(1,3,5-trimethyl-1H-pyrazol-4-yl)prop-2-enamide], 112%; with `CCOc1cc2c(cc1C=C(C#N)C(N)=O)OC(C)C2` (stereo not drawn) [9-D04, 2-cyano-3-(5-ethoxy-2-methyl-2,3-dihydro-1-benzofuran-6-yl)prop-2-enamide], 128%. Then `Cc1ccc(NC(=O)C(C#N)=Cc2ccccc2OC(F)F)cc1` [9-D05, 2-cyano-3-[2-(difluoromethoxy)phenyl]-N-(4-methylphenyl)prop-2-enamide], with 96.9%. Consider `CCOC=C(C#N)C(=O)N1CCN(S(=O)(=O)c2cc[nH]n2)CC1` [9-D06, 3-ethoxy-2-[4-(1H-pyrazole-3-sulfonyl)piperazine-1-carbonyl]prop-2-enenitrile], for which the viability at 48 h, 25 µM was 110%. With `COc1ccc2cc(C=C(C#N)C(=O)NCc3ccccc3)ccc2c1` [9-D07, N-benzyl-2-cyano-3-(6-methoxynaphthalen-2-yl)prop-2-enamide] the figure was 108%; with `N#CC1=C(N2CCOCC2)SC(c2ccc([N+](=O)[O-])cc2)NC1=O` (stereo not drawn) [9-D08, 6-(morpholin-4-yl)-2-(4-nitrophenyl)-4-oxo-3,4-dihydro-2H-1,3-thiazine-5-carbonitrile], 112%. Regarding `N#CC(=Cc1ccc(Cl)cc1)C(=O)Nc1cccc2c1C(=O)NC2=O` [9-D09, 3-(4-chlorophenyl)-2-cyano-N-(1,3-dioxo-2,3-dihydro-1H-isoindol-4-yl)prop-2-enamide], the viability at 48 h, 25 µM was found to be 105%. In the case of `CN(C)c1ccc(C=C(C#N)C(=O)NCc2ccco2)cc1` [9-D10, 2-cyano-3-[4-(dimethylamino)phenyl]-N-[(furan-2-yl)methyl]prop-2-enamide], the viability at 48 h, 25 µM came out at 101%. Turning to `CCCn1c(C)cc(C=C(C#N)C(=O)N2CCCCC2)c1C` [9-D11, 3-(2,5-dimethyl-1-propyl-1H-pyrrol-3-yl)-2-(piperidine-1-carbonyl)prop-2-enenitrile], the viability at 48 h, 25 µM came out at 106%. With `Cc1ccc(C)c(NC(=O)C(C#N)=Cc2ccc(N3CCCCC3)o2)c1` [9-D12, 2-cyano-N-(2,5-dimethylphenyl)-3-[5-(piperidin-1-yl)furan-2-yl]prop-2-enamide] the figure was 69.5%; with `Cc1cc(C=C(C#N)C(=O)Nc2nccs2)cc(C)c1O` [9-D13, 2-cyano-3-(4-hydroxy-3,5-dimethylphenyl)-N-(1,3-thiazol-2-yl)prop-2-enamide], 106%. With `CNC(=O)C(C#N)=Cc1cccc(C)c1C` [9-D14, 2-cyano-3-(2,3-dimethylphenyl)-N-methylprop-2-enamide], the viability at 48 h, 25 µM came out at 112%.

By viability is commonly meant a read-out of living cells in per cent, often relative to untreated cells.
